Data reported in US10723754B2, “2′,4′-bridged nucleosides for HCV infection” (IDENIX PHARMACEUTICALS LLC, priority 2012, dated 2020).
Read-outs that look alike come from different tables or passages of the source.

Columns and labels:
[1] = biological target: T1, HCV genotype 1b NS5B protein containing the S282T mutation (Hepatitis C virus genotype 1b, UniProt Q9WMX2, S2701T); assay: HCV polymerase enzyme assay, S282T 1b; format: biochemical
T1 construct: approximately 65 kDa HCV genotype 1b NS5B protein; made in house
Excerpt: (§1) Test compounds in the form of nucleoside triphosphates were examined for inhibitory activity against purified HCV polymerase in a standard assay. Bacterial expression constructs encoding the approximately 65 kDa HCV genotype 1b NS5B protein were used to generate recombinant HCV polymerases (with a deletion of the 21 carboxy terminal amino acids). The wild-type genotype 1b protein, genotype 1b protein containing the S282T mutation, wild-type genotype 1a protein, wild-type genotype 2a protein, wild-type genotype 3a protein and wild-type genotype 4a protein were expressed and purified for use in the enzymatic activity assay.
(§2) The enzymatic activity assay measured the inhibitory effect of increasing concentrations of test compound on the incorporation of α-[^33P]-labeled nucleotide into trichloroacetic acid-precipitable material. Recombinant polymerase and synthetic RNA template were combined in reaction buffer containing ribonucleoside triphosphates, α-[^33P]-labeled nucleotide and eight concentrations of test compound in three-fold dilutions. Reactions were incubated for two hours at 30° C.
(§3) Reactions were terminated by the addition of ice-cold trichloroacetic acid and sodium pyrophosphate to promote precipitation of newly-synthesized ribonucleic acid. Precipitable material from the reactions was collected by filtration onto 96-well filter plates, washed extensively with water, and quantified by liquid scintillation.
(§4) The inhibitory activity of test compounds was determined by fitting results to dose-response curves using XLfit software.

[2] = biological target: T2, HCV wild-type genotype 1b NS5B protein (Hepatitis C virus genotype 1b, UniProt Q9WMX2); assay: HCV polymerase enzyme assay, wild-type 1b; format: biochemical
T2 construct: approximately 65 kDa HCV genotype 1b NS5B protein; made in house
Excerpt: as §1, §2, §3, §4

[3] = Cytotoxicity evaluation (CellTiter-Blue Cell Viability Assay); settings: human
[4] = tested on: HCV genotype 1b replicon in Huh-7-derived cell line (Zluc); assay: HCV replicon assay (luciferase reporter); format: cell-based; settings: Hepatitis C virus, Zluc cells, 72 hours of incubation
Description: Huh-7-derived cell line (Zluc) that harbors an HCV genotype 1b replicon and a luciferase reporter gene was grown in Dulbecco's Modified Eagle Medium (DMEM) supplemented with 10% fetal bovine serum, 2 mM GlutaMAX, 1% MEM nonessential amino acids, 100 IU/mL penicillin, 100 μg/mL streptomycin, and 0.5 mg/mL Geneticin® (G418). For dose response testing the cells were seeded in 96-well plates at 7.5×10^3 cells per well in a volume of 50 μL, and incubated at 37° C./5% CO2. Drug solutions were made up freshly in Huh-7 media as 2× stocks. Ten additional 5-fold dilutions were prepared from these stocks in DMEM without G418. At least three hours after Zluc cells were seeded, drug treatment was initiated by adding 50 μL of drug dilutions to the plates in duplicate. Final concentrations of drug ranged from 100 μM to […]. Cells were then incubated at 37° C./5% CO2. Alternatively, compounds were tested at two concentrations (1 μM and 10 μM). […] For this, media was removed from the plates via gentle tapping. Fifty microliters of ONE-glo luciferase assay reagent was added to each well. The plates were shaken gently for 3 min at room temperature and luminescence was measured on a Victor^3 V 1420 multilabel counter (Perkin Elmer) with a 1 second read time using a 700 nm cut-off filter. The EC50 values were calculated from dose response curves from the resulting best-fit equations determined by Microsoft Excel and XLfit 4.1 software. When screening at two fixed concentrations, the results were expressed as % inhibition at 1 μM and 10 μM.

[5] = in vitro; settings: human
[6] = biological target: T3, HCV polymerase wild-type genotype 2a protein (Hepatitis C virus genotype 2a, UniProt Q99IB8); assay: HCV polymerase enzyme assay, wild-type 2a; format: biochemical; settings: purified recombinant polymerase; compounds as nucleoside triphosphates
T3 construct: used to generate recombinant HCV polymerases; made in house
Excerpt: as §1
(§5) The enzymatic activity assay measured the inhibitory effect of increasing concentrations of test compound on the incorporation of α-[^33P]-labeled nucleotide into trichloroacetic acid-precipitable material. […]
as §3, §4

[7] = biological target: T4, HCV polymerase wild-type genotype 3a protein (Hepatitis C virus genotype 3a, UniProt Q81258); assay: HCV polymerase enzyme assay, wild-type 3a; format: biochemical; settings: purified recombinant polymerase; compounds as nucleoside triphosphates
T4 construct: used to generate recombinant HCV polymerases; made in house
T4 sequence (Q81258 2431-3000): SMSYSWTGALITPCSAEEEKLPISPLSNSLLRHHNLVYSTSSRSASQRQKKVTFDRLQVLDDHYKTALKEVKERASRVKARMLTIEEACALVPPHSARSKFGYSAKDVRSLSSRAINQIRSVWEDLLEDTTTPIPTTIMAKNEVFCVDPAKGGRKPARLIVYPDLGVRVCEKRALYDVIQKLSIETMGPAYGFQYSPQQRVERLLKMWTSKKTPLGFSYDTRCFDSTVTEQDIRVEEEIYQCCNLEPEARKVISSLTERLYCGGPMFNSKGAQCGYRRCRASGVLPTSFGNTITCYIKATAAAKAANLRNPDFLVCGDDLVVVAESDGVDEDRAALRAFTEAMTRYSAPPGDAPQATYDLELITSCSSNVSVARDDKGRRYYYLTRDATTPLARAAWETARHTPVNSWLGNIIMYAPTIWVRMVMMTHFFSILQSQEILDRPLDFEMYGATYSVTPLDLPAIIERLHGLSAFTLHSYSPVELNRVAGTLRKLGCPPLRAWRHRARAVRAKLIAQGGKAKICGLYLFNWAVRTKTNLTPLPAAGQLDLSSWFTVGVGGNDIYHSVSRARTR
Excerpt: as §1, §5, §3, §4

[8] = biological target: T5, HCV polymerase wild-type genotype 4a protein (Hepatitis C virus genotype 4a, UniProt O39929); assay: HCV polymerase enzyme assay, wild-type 4a; format: biochemical; settings: purified recombinant polymerase; compounds as nucleoside triphosphates
T5 construct: used to generate recombinant HCV polymerases; made in house
T5 sequence (O39929 2418-2987): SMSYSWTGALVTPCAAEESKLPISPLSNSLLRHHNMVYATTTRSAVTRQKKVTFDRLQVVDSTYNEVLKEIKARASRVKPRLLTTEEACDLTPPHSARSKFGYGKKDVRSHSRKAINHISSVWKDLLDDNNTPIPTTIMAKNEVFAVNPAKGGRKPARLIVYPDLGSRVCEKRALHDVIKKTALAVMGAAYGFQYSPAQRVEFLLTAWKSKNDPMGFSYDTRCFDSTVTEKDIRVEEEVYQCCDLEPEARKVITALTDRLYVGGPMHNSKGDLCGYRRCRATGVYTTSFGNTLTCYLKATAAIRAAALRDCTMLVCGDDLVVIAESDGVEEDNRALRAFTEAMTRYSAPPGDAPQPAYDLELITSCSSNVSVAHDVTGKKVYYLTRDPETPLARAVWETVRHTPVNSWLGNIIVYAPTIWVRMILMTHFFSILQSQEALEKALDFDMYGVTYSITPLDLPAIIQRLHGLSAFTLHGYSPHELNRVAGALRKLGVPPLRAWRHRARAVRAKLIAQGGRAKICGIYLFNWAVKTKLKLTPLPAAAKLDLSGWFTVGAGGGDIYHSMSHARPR
Excerpt: as §1, §5, §3, §4

[9] = biological target: T6, HCV polymerase wild-type genotype 1a protein (Hepatitis C virus genotype 1a, UniProt P27958); assay: HCV polymerase enzyme assay, wild-type 1a; format: biochemical
T6 construct: used to generate recombinant HCV polymerases; made in house
T6 sequence (P27958 2421-2990): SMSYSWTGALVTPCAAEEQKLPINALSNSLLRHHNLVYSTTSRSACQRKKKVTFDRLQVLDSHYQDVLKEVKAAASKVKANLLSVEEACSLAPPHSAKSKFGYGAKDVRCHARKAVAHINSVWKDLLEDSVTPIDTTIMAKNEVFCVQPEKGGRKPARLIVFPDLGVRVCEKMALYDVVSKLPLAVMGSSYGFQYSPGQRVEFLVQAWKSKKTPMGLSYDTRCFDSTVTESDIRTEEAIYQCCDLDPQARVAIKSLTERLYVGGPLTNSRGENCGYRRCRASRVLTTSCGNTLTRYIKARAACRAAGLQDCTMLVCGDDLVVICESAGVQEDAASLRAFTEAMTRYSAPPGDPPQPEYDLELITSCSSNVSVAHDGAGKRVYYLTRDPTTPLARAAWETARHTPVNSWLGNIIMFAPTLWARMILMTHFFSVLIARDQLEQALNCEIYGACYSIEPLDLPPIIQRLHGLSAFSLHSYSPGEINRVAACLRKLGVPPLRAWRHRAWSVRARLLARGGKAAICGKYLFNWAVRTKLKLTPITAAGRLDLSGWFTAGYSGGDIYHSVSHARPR
Excerpt: as §1, §5, §3, §4

[10] = purified recombinant polymerase, compounds as nucleoside triphosphates, read-out: S282T 1b IC50

Structure (SMILES) | IC50 [1, 10] [µM] | IC50 [2] [µM] | further results
CC(OP(=O)(O)OP(=O)(O)OP(=O)(O)O)C12COC(C(n3cnc4c(=O)[nH]c(N)nc43)O1)C2O (single isomer, unassigned) [Compound 102 Diastereomer 1] | > 10 |  | 
CC(OP(=O)(O)OP(=O)(O)OP(=O)(O)O)C12COC(C(n3cnc4c(=O)[nH]c(N)nc43)O1)C2O (single isomer, unassigned) [Compound 102 Diastereomer 2] | > 10 | > 10 | 
CCOc1nc(N)nc2c1ncn2[C@@H]1O[C@@]2(COP(=O)(N[C@@H](C)C(=O)OC(C)C)Oc3ccccc3)CO[C@@H]1[C@@H]2O (some centres unmarked) [Compound 25] |  | 0.25 to 1 | IC50 [1]: 0.25 to 1 µM
[N-]=[N+]=N[C@H]1[C@H]2OC[C@]1(CO)O[C@H]2n1ccc(=O)[nH]c1=O [Compound 33] |  |  | CC50 at 72 h [3]: > 50 µM; EC50 [4]: > 10 µM
CC(=O)N[C@H]1[C@H]2OC[C@]1(CO)O[C@H]2n1ccc(=O)[nH]c1=O [Compound 35] |  |  | CC50 at 72 h [3]: > 50 µM; EC50 [4]: > 10 µM
CS(=O)(=O)N[C@H]1[C@H]2OC[C@]1(CO)O[C@H]2n1ccc(=O)[nH]c1=O [Compound 36] |  |  | CC50 at 72 h [3]: > 50 µM; EC50 [4]: > 10 µM
COC(=O)N[C@H]1[C@H]2OC[C@]1(CO)O[C@H]2n1ccc(=O)[nH]c1=O [Compound 37] |  |  | CC50 at 72 h [3]: > 50 µM; EC50 [4]: > 10 µM
Nc1nc2c(ncn2[C@@H]2O[C@@]3(CO)CN[C@@H]2[C@@H]3O)c(=O)[nH]1 [Compound 38] |  |  | EC50 [4]: > 10 µM; CC50 at 72 h [5]: > 50 µM
Nc1ncnc2c1ncn2[C@@H]1O[C@@]2(COP(=O)(O)OP(=O)(O)OP(=O)(O)O)CO[C@@H]1[C@@H]2O [Compound 101] | > 10 | > 10 | 
Nc1nc2c(ncn2[C@@H]2O[C@@]3(COP(=O)(O)OP(=O)(O)OP(=O)(O)O)CO[C@@H]2[C@@H]3O)c(=O)[nH]1 [Compound 103] | 0.25 to 1 | 0.25 to 1 | IC50 [6]: 0.25 to 1 µM; IC50 [7]: < 0.25 µM; IC50 [8]: 0.25 to 1 µM; IC50 [9]: 0.25 to 1 µM
C[C@H](OP(=O)(O)OP(=O)(O)OP(=O)(O)O)[C@@]12CO[C@@H]([C@H](n3ccc(=O)[nH]c3=O)O1)[C@@H]2O [Compound 104a] | > 10 | > 10 | 
C[C@@H](OP(=O)(O)OP(=O)(O)OP(=O)(O)O)[C@@]12CO[C@@H]([C@H](n3ccc(=O)[nH]c3=O)O1)[C@@H]2O [Compound 104b] | > 10 | > 10 | 
C[C@]12OC[C@](COP(=O)(O)OP(=O)(O)OP(=O)(O)O)(O[C@H]1n1cnc3c(=O)[nH]c(N)nc31)[C@H]2O [Compound 106] | 0.25 to 1 | < 0.25 | 
Nc1ccn([C@@H]2O[C@@]3(COP(=O)(O)OP(=O)(O)OP(=O)(O)O)CO[C@@H]2[C@@H]3O)c(=O)n1 [Compound 107] | 1 to 10 | 1 to 10 | 
O=c1ccn([C@@H]2O[C@@]3(COP(=O)(O)OP(=O)(O)OP(=O)(O)O)CO[C@@H]2[C@@H]3O)c(=O)[nH]1 [Compound 108] | > 10 | 1 to 10 | 
[N-]=[N+]=N[C@H]1[C@H]2OC[C@]1(COP(=O)(O)OP(=O)(O)OP(=O)(O)O)O[C@H]2n1ccc(=O)[nH]c1=O [Compound 401] |  | > 10 | 
C[C@H]1O[C@H]2[C@H](n3cnc4c(=O)[nH]c(N)nc43)O[C@]1(COP(=O)(O)OP(=O)(O)OP(=O)(O)O)[C@H]2O [Compound 426] |  | > 10 | 
C[C@H]1O[C@H]2[C@H](n3ccc(=O)[nH]c3=O)O[C@]1(COP(=O)(O)OP(=O)(O)OP(=O)(O)O)[C@H]2O [Compound 427] |  | > 10 | 
Nc1nc2c(ncn2[C@@H]2O[C@@]3(COP(=O)(O)OP(=O)(O)OP(=O)(O)O)CN[C@@H]2[C@@H]3O)c(=O)[nH]1 [Compound 570] |  | > 10 | 
N[C@H]1[C@H]2OC[C@]1(COP(=O)(O)OP(=O)(O)OP(=O)(O)O)O[C@H]2n1ccc(=O)[nH]c1=O [Compound 571] |  | > 10 | 
